As usually defined, the Km is the concentration of substrate that gives half-maximal velocity.

Structures can show the parent of a compound that is named as a salt.

This passage reports Km results from article PMC5613698 (Biochemistry and Biophysics Reports, 2016).

The experiment has as its system trypsin from L. alexandri pyloric cecum (Pacamã trypsin). Put plainly: p-nitroaniline release at […] nm, Lineweaver-Burk. Type of experiment: biochemical, Lophiosilurus alexandri. The conditions noted are these: optimum pH (9.0) and temperature (50 °C), 90 min, BAPNA 0-6.0 mM.

On to `N=C(N)NCCCC(NC(=O)c1ccccc1)C(=O)Nc1ccc([N+](=O)[O-])cc1` (racemic) [BAPNA, Nα-Benzoyl-D,L-arginine 4-nitroanilide hydrochloride], for which the Km came out at 517 µM.
